What all share (format): cell-based
The test system of one test is T. mentagrophytes. Put plainly: in vitro agar Petri dish dilution test, T. mentagrophytes. Conditions: Trichophyton mentagrophytes, 100% growth inhibition. From the text: (§1) The compound has antimicrobial utility.
A further test deals with C. albicans. Put plainly: in vitro agar Petri dish dilution test, C. albicans. Conditions: Candida albicans, 100% growth inhibition.
Source text: as §1

A further test has as its system S. marcescens NIH. Nature of the test: in vitro agar Petri dish dilution test, S. marcescens NIH. Conditions: Serratia marcescens, 100% growth inhibition.
Source text: as §1

A further test has as its system E. coli ATCC 11229. Nature of the test: in vitro agar Petri dish dilution test, E. coli ATCC 11229. Conditions: Escherichia coli, ATCC11229, 100% growth inhibition.
Source text: as §1

A further test has as its system B. subtilis. Put plainly: in vitro agar Petri dish dilution test, B. subtilis. Conditions: Bacillus subtilis, 100% growth inhibition.
Source text: as §1

A further test has as its system S. aureus. Put plainly: in vitro agar Petri dish dilution test, S. aureus. Conditions: Staphylococcus aureus, 100% growth inhibition.
Source text: as §1

A further test deals with C. pelliculosa. Nature of the test: in vitro agar Petri dish dilution test, C. pelliculosa. Conditions: Hansenula anomala, 100% growth inhibition.
Source text: as §1

The test system of a further test is C. albicans NIH. Put plainly: in vitro agar Petri dish dilution test, C. albicans NIH. Conditions: Candida albicans, 100% growth inhibition.
Source text: as §1

Another test concerns A. fumigatus. Nature of the test: in vitro agar Petri dish dilution test, A. fumigatus. Conditions: Aspergillus fumigatus, 100% growth inhibition.
Source text: as §1

The next test has as its system P. chrysogenum. Nature of the test: in vitro agar Petri dish dilution test, P. chrysogenum. Conditions: Penicillium chrysogenum, 100% growth inhibition.
Source text: as §1

For test [1], the system named is Trichoderm Sp. Madison P-42. Put plainly: in vitro agar Petri dish dilution test, Trichoderm Sp. Madison P-42. Conditions: 100% growth inhibition.
Source text: as §1

A further test concerns P. aeruginosa. Nature of the test: in vitro agar Petri dish dilution test, P. aeruginosa. Conditions: Pseudomonas aeruginosa, 100% growth inhibition.
Source text: as §1

Test [2] has as its system K. pneumoniae M-1 Midland Hospital. Put plainly: in vitro agar Petri dish dilution test, K. pneumoniae M-1 Midland Hospital. Conditions: Klebsiella pneumoniae, 100% growth inhibition.
Source text: as §1

The test system of the next test is Torulopsis Species. Put plainly: in vitro agar Petri dish dilution test, Torulopsis Species. Conditions: 100% growth inhibition.
Source text: as §1

The next test deals with A. niger. Put plainly: in vitro agar Petri dish dilution test, A. niger. Conditions: Aspergillus niger, 100% growth inhibition.
Source text: as §1

A further test relates to P. pullulans. Put plainly: in vitro agar Petri dish dilution test, P. pullulans. Conditions: 100% growth inhibition.
Source text: as §1

In brackets after ≈: the same amount, converted by molar mass.

Here are results for one molecule from patent US4049696A, “3-((4-(2,2-Dichloro-1,1-difluoroethoxy)phenyl)sulfonyl)-2-propenenitrile” (The Dow Chemical Company, priority 1977, dated 1977).

Take `N#CC=CS(=O)(=O)c1ccc(OC(F)(F)C(Cl)Cl)cc1` [3-((4-(2,2-Dichloro-1,1-difluoroethoxy)phenyl)sulfonyl)-2-propenenitrile]: the MIC in the test with T. mentagrophytes worked out at 10 µg/mL (≈ 29.2 µM); against C. albicans it was 50 µg/mL (≈ 146 µM); with S. marcescens NIH it was 50 µg/mL (≈ 146 µM); in the test on E. coli ATCC 11229, 50 µg/mL (≈ 146 µM); in the test on B. subtilis, 1 µg/mL (≈ 2.92 µM); in the test on S. aureus, 5 µg/mL (≈ 14.6 µM). Further, the MIC with C. pelliculosa is 10 µg/mL (≈ 29.2 µM); in the test on C. albicans NIH it was 50 µg/mL (≈ 146 µM); against A. fumigatus it was 50 µg/mL (≈ 146 µM); against P. chrysogenum, 10 µg/mL (≈ 29.2 µM); in test [1], 100 µg/mL (≈ 292 µM); against P. aeruginosa, 100 µg/mL (≈ 292 µM). For the same molecule, the MIC in test [2] worked out at 100 µg/mL (≈ 292 µM); against Torulopsis Species it was 50 µg/mL (≈ 146 µM); against A. niger, 10 µg/mL (≈ 29.2 µM); with P. pullulans, 50 µg/mL (≈ 146 µM).

A word on the MIC: it is the smallest concentration in the dilution series that meets the test's criterion for growth inhibition. Read a high MIC as a need for much substance.
